Experimental data as given in the supplement of paper PMC10307832.

Tests used:
Assay in all cases: relative viability (nuclei count vs DMSO), 5 days (fraction); higher = more cells survive
EKVX = test system: EKVX
Outline: (§1)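 One day after seeding in 1536-well plates, lung cancer cell lines were dosed by pin tool. Dosing was either single-drug or a fixed anchor-drug dose plus five library-drug doses (not always all listed) in √10 steps. After 5 days, nuclei were stained in one fix-and-stain step and counted on 4× images, and relative viability is the nuclei count of treated wells over that of vehicle wells, given as the median of duplicate plates.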

NCI-H1355 = test system: NCI-H1355
Outline: as §1

NCI-H1993 = test system: NCI-H1993
Outline: as §1

NCI-H2170 = test system: NCI-H2170
Outline: as §1

NCI-H1944 = test system: NCI-H1944
Outline: as §1

NCI-H661 = test system: NCI-H661
Outline: as §1

SK-MES-1 = test system: SK-MES-1
Outline: as §1

NCI-H727 = test system: NCI-H727
Outline: as §1

NCI-H1666 = test system: NCI-H1666
Outline: as §1

HOP-62 = test system: HOP-62
Outline: as §1

LOU-NH91 = test system: LOU-NH91
Outline: as §1

NCI-H441 = test system: NCI-H441
Outline: as §1

NCI-H2126 = test system: NCI-H2126
Outline: as §1

BEN = test system: BEN
Outline: as §1

LCLC-103H = test system: LCLC-103H
Outline: as §1

HCC-827 = test system: HCC-827
Outline: as §1

NCI-H647 = test system: NCI-H647
Outline: as §1

PC-14 = test system: PC-14
Outline: as §1

LK-2 = test system: LK-2
Outline: as §1

LXF-289 = test system: LXF-289
Outline: as §1

ChaGo-K-1 = test system: ChaGo-K-1
Outline: as §1

NCI-H1437 = test system: NCI-H1437
Outline: as §1

RERF-LC-KJ = test system: RERF-LC-KJ
Outline: as §1

CN1CCN(CCOc2cc(OC3CCOCC3)c3c(Nc4c(Cl)ccc5c4OCO5)ncnc3c2)CC1 [Saracatinib] + CC(=O)Nc1cccc(-n2c(=O)n(C3CC3)c(=O)c3c(Nc4ccc(I)cc4F)n(C)c(=O)c(C)c32)c1 [Trametinib] (partner 0.02 µM)
relative viability (EKVX; first compound 0.02 µM): 0.274 | relative viability (EKVX; first compound 0.6325 µM): 0.37 | relative viability (EKVX; first compound 2 µM): 0.163 | relative viability (NCI-H1355; first compound 0.02 µM): 0.437 | relative viability (NCI-H1355; first compound 0.2 µM): 0.456 | relative viability (NCI-H1355; first compound 0.6325 µM): 0.439 | relative viability (NCI-H1355; first compound 2 µM): 0.441 | relative viability (NCI-H1993; first compound 0.02 µM): 0.539 | relative viability (NCI-H1993; first compound 0.2 µM): 0.518 | relative viability (NCI-H1993; first compound 0.6325 µM): 0.528 | relative viability (NCI-H1993; first compound 2 µM): 0.5 | relative viability (NCI-H2170; first compound 0.02 µM): 0.917 | relative viability (NCI-H2170; first compound 0.2 µM): 0.859 | relative viability (NCI-H2170; first compound 0.6325 µM): 0.916 | relative viability (NCI-H2170; first compound 2 µM): 0.862 | relative viability (NCI-H1944; first compound 0.02 µM): 0.421 | relative viability (NCI-H1944; first compound 0.2 µM): 0.391 | relative viability (NCI-H1944; first compound 0.6325 µM): 0.417 | relative viability (NCI-H1944; first compound 2 µM): 0.308 | relative viability (NCI-H661; first compound 0.02 µM): 0.568 | relative viability (NCI-H661; first compound 0.2 µM): 0.572 | relative viability (NCI-H661; first compound 0.6325 µM): 0.6 | relative viability (NCI-H661; first compound 2 µM): 0.362 | relative viability (SK-MES-1; first compound 0.02 µM): 0.548 | relative viability (SK-MES-1; first compound 0.2 µM): 0.6 | relative viability (SK-MES-1; first compound 0.6325 µM): 0.347 | relative viability (SK-MES-1; first compound 2 µM): 0.256 | relative viability (NCI-H727; first compound 0.02 µM): 0.369 | relative viability (NCI-H727; first compound 0.2 µM): 0.402 | relative viability (NCI-H727; first compound 0.6325 µM): 0.379 | relative viability (NCI-H727; first compound 2 µM): 0.308 | relative viability (NCI-H1666; first compound 0.02 µM): 0.829 | relative viability (NCI-H1666; first compound 0.2 µM): 0.939 | relative viability (NCI-H1666; first compound 0.6325 µM): 1.06 | relative viability (NCI-H1666; first compound 2 µM): 0.823 | relative viability (HOP-62; first compound 0.02 µM): 0.412 | relative viability (HOP-62; first compound 0.2 µM): 0.455 | relative viability (HOP-62; first compound 0.6325 µM): 0.441 | relative viability (HOP-62; first compound 2 µM): 0.398 | relative viability (LOU-NH91; first compound 0.02 µM): 0.731 | relative viability (LOU-NH91; first compound 0.2 µM): 0.694 | relative viability (LOU-NH91; first compound 0.6325 µM): 0.758 | relative viability (LOU-NH91; first compound 2 µM): 0.636 | relative viability (NCI-H441; first compound 0.02 µM): 0.514 | relative viability (NCI-H441; first compound 0.2 µM): 0.487 | relative viability (NCI-H441; first compound 0.6325 µM): 0.507 | relative viability (NCI-H441; first compound 2 µM): 0.339 | relative viability (NCI-H2126; first compound 0.02 µM): 0.592 | relative viability (NCI-H2126; first compound 0.2 µM): 0.509 | relative viability (NCI-H2126; first compound 0.6325 µM): 0.551 | relative viability (NCI-H2126; first compound 2 µM): 0.517 | relative viability (BEN; first compound 0.02 µM): 1.04 | relative viability (BEN; first compound 0.2 µM): 1.15 | relative viability (BEN; first compound 0.6325 µM): 1.17 | relative viability (BEN; first compound 2 µM): 1.13 | relative viability (LCLC-103H; first compound 0.02 µM): 0.716 | relative viability (LCLC-103H; first compound 0.2 µM): 0.58 | relative viability (LCLC-103H; first compound 0.6325 µM): 0.751 | relative viability (LCLC-103H; first compound 2 µM): 0.656 | relative viability (HCC-827; first compound 0.02 µM): 0.542 | relative viability (HCC-827; first compound 0.2 µM): 0.306 | relative viability (HCC-827; first compound 0.6325 µM): 0.225 | relative viability (HCC-827; first compound 2 µM): 0.156 | relative viability (NCI-H647; first compound 0.02 µM): 0.449 | relative viability (NCI-H647; first compound 0.2 µM): 0.381 | relative viability (NCI-H647; first compound 0.6325 µM): 0.39 | relative viability (NCI-H647; first compound 2 µM): 0.255 | relative viability (PC-14; first compound 0.02 µM): 0.605 | relative viability (PC-14; first compound 0.2 µM): 0.275 | relative viability (PC-14; first compound 0.6325 µM): 0.0993 | relative viability (PC-14; first compound 2 µM): 0.0574 | relative viability (LK-2; first compound 0.02 µM): 0.725 | relative viability (LK-2; first compound 0.2 µM): 0.736 | relative viability (LK-2; first compound 0.6325 µM): 0.722 | relative viability (LK-2; first compound 2 µM): 0.614 | relative viability (LXF-289; first compound 0.02 µM): 0.677 | relative viability (LXF-289; first compound 0.2 µM): 0.644 | relative viability (LXF-289; first compound 0.6325 µM): 0.655 | relative viability (LXF-289; first compound 2 µM): 0.685 | relative viability (ChaGo-K-1; first compound 0.02 µM): 0.935 | relative viability (ChaGo-K-1; first compound 0.2 µM): 0.566 | relative viability (ChaGo-K-1; first compound 0.6325 µM): 0.906 | relative viability (ChaGo-K-1; first compound 2 µM): 0.84 | relative viability (NCI-H1437; first compound 0.02 µM): 0.652 | relative viability (NCI-H1437; first compound 0.2 µM): 0.538 | relative viability (NCI-H1437; first compound 0.6325 µM): 0.733 | relative viability (NCI-H1437; first compound 2 µM): 0.538 | relative viability (RERF-LC-KJ; first compound 0.02 µM): 0.907 | relative viability (RERF-LC-KJ; first compound 0.2 µM): 0.869 | relative viability (RERF-LC-KJ; first compound 0.6325 µM): 0.916 | relative viability (RERF-LC-KJ; first compound 2 µM): 0.687
